Measured values taken from patent publication US20230365530A1, “QUINAZOLINE-2,4-DIAMINE DERIVATIVE AND PHARMACEUTICAL COMPOSITION FOR PREVENTING OR TREATING CANCER COMPRISING SAME AS ACTIVE INGREDIENT” (THE ASEAN FOUNDATION, priority 2020, published 2023).

Legend:
Miapaca2 xenograft model = experiment: Tumor growth inhibition in Miapaca2 xenograft model; format: in vivo, Athymic nude mouse; details: 20 mg/kg intraperitoneally once a day for 4 weeks
Experimental: In order to confirm the tumor growth inhibitory effect of the compounds of Examples according to the present invention in a xenograft model in which the human pancreatic cancer cell line was transplanted, a cancer growth inhibition experiment was conducted in the Miapaca2 xenograft model.
Specific experimental methods are as follows. The frozen Miapaca-2 cell line was thawed and cultured in DMEM (Dulbecco's modified Eagle's medium) supplemented with 10% FBS and 1% penicillin-streptomycin in a 37° C., 5% CO2 incubator. The thawed cells were cultured for more than one week, and subcultured at intervals of 2˜3 days, confirming that there was no infection with bacteria, yeast (cell image) and mycoplasma. The cells were stained with trypan blue, and those having a survival rate of 90% or more were used for transplantation. The cells were suspended using trypsin-EDTA and then suspended in a cold solution (PBS:matrigel=6:4). Miapaca-2 cells (4×10^6 cells/[…]) were subcutaneously transplanted under the right scapula of the Athymic nude mouse, which had been acclimated for about 1 week. From the 3rd day after the transplantation, tumor formation and growth were observed, and the volume of the tumor was calculated according to the following equation using the measured tumor length.
[Tumor volume=(a^2b)/2, a: short diameter, b: long diameter]
When the average tumor volume of all mice on the day after tumor transplantation was 80±20 mm^3, the mice were grouped by paired-matching. Drugs were dissolved in 40% polyethylene glycol 400+16% 2-hydroxypropyl-b-cyclodextrin. The drugs were intraperitoneally administered at 20 mg/kg once a day for 4 weeks. A tumor growth curve was prepared using the tumor volume from the start date of drug administration to the end of the test. The results are shown in FIG. 1, and the tumor growth inhibition rates of the compounds of Examples to the control group are shown in Table 4.

[1] = molecular target: EHMT2 (Euchromatic histone-lysine N-methyltransferase 2) (Homo sapiens (Human), UniProt Q96KQ7); experiment: EHMT2 enzyme inhibition, LANCE TR-FRET; format: biochemical; details: histone H3 peptide, 1 hour at room temperature
Sequence of EHMT2 (Euchromatic histone-lysine N-methyltransferase 2) (Q96KQ7 whole entry): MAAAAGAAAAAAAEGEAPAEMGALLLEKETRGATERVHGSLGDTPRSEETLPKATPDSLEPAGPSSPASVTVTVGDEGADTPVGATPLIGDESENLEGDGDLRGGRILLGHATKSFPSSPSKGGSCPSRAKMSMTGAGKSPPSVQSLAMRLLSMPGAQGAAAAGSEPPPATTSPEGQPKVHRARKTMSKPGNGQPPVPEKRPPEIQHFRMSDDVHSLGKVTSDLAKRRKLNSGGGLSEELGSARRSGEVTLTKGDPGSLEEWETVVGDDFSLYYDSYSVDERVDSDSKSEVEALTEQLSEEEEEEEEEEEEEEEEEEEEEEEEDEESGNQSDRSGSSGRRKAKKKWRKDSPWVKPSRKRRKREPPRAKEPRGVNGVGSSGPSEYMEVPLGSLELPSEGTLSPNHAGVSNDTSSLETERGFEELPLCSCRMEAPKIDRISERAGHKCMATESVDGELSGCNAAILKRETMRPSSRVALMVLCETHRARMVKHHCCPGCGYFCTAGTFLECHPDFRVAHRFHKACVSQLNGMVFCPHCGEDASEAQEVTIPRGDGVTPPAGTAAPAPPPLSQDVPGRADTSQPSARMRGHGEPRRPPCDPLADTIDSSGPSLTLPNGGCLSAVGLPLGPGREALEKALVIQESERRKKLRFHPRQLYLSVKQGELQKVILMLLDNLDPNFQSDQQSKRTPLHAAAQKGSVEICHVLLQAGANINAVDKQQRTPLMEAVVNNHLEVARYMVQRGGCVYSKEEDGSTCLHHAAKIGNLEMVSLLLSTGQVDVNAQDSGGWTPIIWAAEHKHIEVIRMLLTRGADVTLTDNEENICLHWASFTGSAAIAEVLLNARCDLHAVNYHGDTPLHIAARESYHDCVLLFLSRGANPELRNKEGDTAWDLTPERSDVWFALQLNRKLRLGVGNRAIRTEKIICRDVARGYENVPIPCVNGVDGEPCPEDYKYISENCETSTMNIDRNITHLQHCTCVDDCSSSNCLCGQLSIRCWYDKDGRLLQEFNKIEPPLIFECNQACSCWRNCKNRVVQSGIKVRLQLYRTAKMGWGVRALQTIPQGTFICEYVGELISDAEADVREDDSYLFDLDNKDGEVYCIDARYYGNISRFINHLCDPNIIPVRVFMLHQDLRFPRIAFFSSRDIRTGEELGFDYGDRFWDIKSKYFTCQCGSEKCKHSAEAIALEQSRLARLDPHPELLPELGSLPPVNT
How it was run: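 EHMT2/G9a enzyme preincubated 10 min with SAM and compounds (1 nM–100 μM, 4× stocks), then reacted 1 hour at room temperature with biotinylated histone H3 peptide (2 μM, 4× stock). H3K9 methylation detected by Eu-antibody/ULight-streptavidin TR-FRET at 665 nm; background-subtracted activity expressed relative to 4% DMSO vehicle; IC50 calculated.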

[2] = system: pancreatic cancer cell line Miapaca 2; experiment: Cancer cell growth inhibition test, CellTiter-glo; format: cell-based; details: Homo sapiens, MIA PaCa-2, Miapaca 2 cells, 72 hours
Experimental: In order to confirm the effect of reducing cell viability by inhibiting EHMT2 by the compounds of Examples in cells, the effect of inhibiting cancer cell growth was analyzed using CellTiter-glo™ analysis (Promega, cat. G7573) method. Specifically, the amount of ATP in living cells was measured and IC50 values were calculated using software to compare the inhibitory effect of the compounds of Examples on cell viability. First, the pancreatic cancer cell line Miapaca 2 was placed in a 96-well cell culture plate at the density of 1×10^3 cells/well and cultured overnight, and then each well of the plate was treated with 1 nM to 100 μM of the compounds of Examples 1 to 89 at each concentration for 72 hours (The final concentration of DMSO in each well was 0.5% or less). CellTiter-glo 2.0 reagent was mixed with a medium at 20% of the amount of the medium, reacted at room temperature for 10 minutes, and then 80 μL of the mixture was transferred to each well of a 96-well plate, followed by measuring the degree of luminescence.

MC38 syngeneic model = experiment: Combination therapy with anti CTLA-4 in MC38 syngeneic model; format: in vivo, C57BL/6 mouse
Experimental: In order to confirm the synergistic efficacy of the combination therapy of the compounds of Examples of the present invention and a cancer immunotherapy agent (anti CTLA-4) in a syngeneic animal model transplanted with a mouse colorectal cancer cell line, a cancer cell growth inhibition experiment was conducted in the MC38 syngeneic model. Specific experimental methods are as follows. The frozen MC38 cell line was thawed and cultured in DMEM (Dulbecco's modified Eagle's medium) supplemented with 10% FBS and 1% penicillin-streptomycin in a 37° C., 5% CO2 incubator. The thawed cells were cultured for more than one week, and subcultured at intervals of 2-3 days, confirming that there was no infection with bacteria, yeast (cell image) and mycoplasma. The cells were stained with trypan blue, and those having a survival rate of 90% or more were used for transplantation. The cells were suspended using trypsin-EDTA and then suspended in cold PBS. MC38 cells (1×10^5 cells/150 μl) were subcutaneously transplanted under the right scapula of the C57BL/6 mouse, which had been acclimated for about 1 week. From the 3rd day after the transplantation, tumor formation and growth were observed, and the volume of the tumor was calculated according to the following equation using the measured tumor length. [Tumor volume=(a^2b)/2, a: short diameter, b: long diameter] When the average tumor volume of all mice on the day after tumor transplantation was 80±20 mm^3, the mice were grouped by paired-matching. Drugs were dissolved in 40% polyethylene glycol 400+16% 2-hydroxypropyl-b-cyclodextrin. The compounds of Examples of the present invention were intraperitoneally administered at 30 mg/kg once a day for 4 weeks, and the CTLA-4 antibody (BioX Cell, cat. BE1031) was intraperitoneally administered at 10 mg/kg three times a week. A tumor growth curve was prepared using the tumor volume from the start date of drug administration to the end of the test. The results are shown in FIG. 2, and the tumor growth inhibition rates of the compounds of Examples to the control group are shown in Table 5.

Row | IC50 [1] [nM] | IC50 [2] [nM] | SMILES | Tumor growth inhibition rate (TGI) (Miapaca2 xenograft model) | Effect of combination with cancer immunotherapy agent (in words) (MC38 syngeneic model; combined with anti CTLA-4) | Tumor growth inhibition rate (TGI) (MC38 syngeneic model; compound alone, 30 mg/kg intraperitoneally once a day for 4 weeks) [%] | Anticancer activity alone (in words) (MC38 syngeneic model; treated alone)
1 | < 100 | 655 | COc1cc2c(NC3CCN(C(C)C)CC3)nc(N3CCCCC3)nc2cc1C#CCCN(C)C [Example 3, 7-(4-(dimethylamino)-1-butyne-1-yl)-N-(1-isopropylpiperidine-4-yl)-6-methoxy-2-(piperidine-1-yl)quinazoline-4-amine] | 42.47 | enhancing the anticancer activity of a cancer immunotherapy agent | 3.00 | inhibits tumor growth even when treated alone
2 | < 100 | 338 | COc1cc2c(NC3CCN(C(C)C)CC3)nc(N(C)C)nc2cc1C#CCCN(C)C [Example 14] | – | – | – | –
3 | < 100 | 304 | COc1cc2c(NC3CCN(C(C)C)CC3)nc(N3CCCC3)nc2cc1C#CCCN1CCCC1 [Example 42, N-(1-isopropylpiperidine-4-yl)-6-methoxy-2-(pyrrolidine-1-yl)-7-(4-(pyrrolidine-1-yl)-1-butyne-1-yl)quinazoline-4-amine] | – | – | – | –
4 | < 100 | 333 | COc1cc2c(NC3CCN(C(C)C)CC3)nc(N(C)C)nc2cc1C#CCCN1CCCC1 [Example 49, N4-(1-isopropylpiperidine-4-yl)-6-methoxy-N2,N2-dimethyl-7-(4-(pyrrolidine-1-yl)-1-butyne-1-yl)quinazoline-2,4-diamine] | – | – | – | –
5 | < 100 | 464 | COc1cc2c(NCCN(C)C)nc(N3CCCC3)nc2cc1C#CCCN1CCCC1 [Example 52, N1-(6-methoxy-2-(pyrrolidine-1-yl)-7-(4-(pyrrolidine-1-yl)-1-butyne-1-yl)quinazoline-4-yl)-N2,N2-dimethylethane-1,2-diamine] | 26.39 | – | – | –
6 | < 100 | 307 | COc1cc2c(NC3CCN(C4CC4)CC3)nc(N(C)C)nc2cc1C#CCCN1CCCC1 [Example 55, N4-(1-cyclopropylpiperidine-4-yl)-6-methoxy-N2,N2-dimethyl-7-(4-(pyrrolidine-1-yl)-1-butyne-1-yl)quinazoline-2,4-diamine] | 31.80 | – | – | –
7 | < 100 | 192 | COc1cc2c(NC3CCN(C4CC4)CC3)nc(N3CCCN(C)CC3)nc2cc1C#CCCN1CCCC1 [Example 56, N-(1-cyclopropylpiperidine-4-yl)-6-methoxy-2-(4-methyl-1,4-diazepane-1-yl)-7-(4-(pyrrolidine-1-yl)-1-butyne-1-yl)quinazoline-4-amine] | – | – | – | –
8 | < 100 | 669 | COc1cc2c(NC3CCN(C(C)C)CC3)nc(N3CC[C@@H](F)C3)nc2cc1C#CCCN1CCCC1 [Example 60, (R)-2-(3-fluoropyrrolidine-1-yl)-N-(1-isopropylpiperidine-4-yl)-6-methoxy-7-(4-(pyrrolidine-1-yl)-1-butyne-1-yl)quinazoline-4-amine] | – | – | – | –
